Assay results as given in ChEMBL document CHEMBL4814041, “Anti-fibrotic effects of brevilin A in hepatic fibrosis via inhibiting the STAT3 signaling pathway” (Bioorg Med Chem Lett, 2021).
≈ marks a conversion by molar mass, not a printed value. Calls of active or inactive are those of the source. The calls are words filed in the database; no cut-off is given here.

Legend:
[1] = biological target: Signal transducer and activator of transcription 3 (Homo sapiens) (UniProt P40763); experiment: Inhibition of STAT3 in human LX2 cells assessed as reduction in TGF-1beta-induced STAT3 phosphorylation at 0.25 to 1 ug/ml by Western blot analysis; assay type: cell-based; details: dose 0.25-1 µg/ml
[2] = system: LX-2; experiment: Anti-fibrotic activity against human LX2 cells assessed as reduction in TGF-1beta-induced collagen mRNA expression at 0.25 to 1 ug/ml by qPCR analysis; assay type: functional, cell-based; details: dose 0.25-1 µg/ml
[3] = system: LX-2; experiment: Anti-fibrotic activity against human LX2 cells assessed as reduction in TGF-1beta-induced alpha-SMA mRNA expression at 0.25 to 1 ug/ml by qPCR analysis; assay type: functional, cell-based; details: dose 0.25-1 µg/ml
[4] = system: Influenza A virus; experiment: Antiviral activity against influenza A virus infected in MDCK cells assessed as reduction in plaque number measured after 48 to 72 hrs; assay type: functional, organism-based
[5] = Anticancer activity against human nasopharyngeal carcinoma cells measured upto 72 hrs by MTT assay; assay type: functional; details: Nasopharyngeal carcinoma cell line
[6] = biological target: Signal transducer and activator of transcription 3 (Homo sapiens) (UniProt P40763); experiment: Inhibition of STAT3 in human LX2 cells assessed as reduction in TGF-1beta-induced CTGF expression at 0.25 to 1 ug/ml by Western blot analysis; assay type: cell-based; details: dose 0.25-1 µg/ml
[7] = system: LX-2; experiment: Anti-fibrotic activity against human LX2 cells assessed as reduction in TGF-1beta-induced fibronectin mRNA expression at 0.25 to 1 ug/ml by qPCR analysis; assay type: functional, cell-based; details: dose 0.25-1 µg/ml

Chain of Signal transducer and activator of transcription 3 (Homo sapiens) (P40763 whole entry): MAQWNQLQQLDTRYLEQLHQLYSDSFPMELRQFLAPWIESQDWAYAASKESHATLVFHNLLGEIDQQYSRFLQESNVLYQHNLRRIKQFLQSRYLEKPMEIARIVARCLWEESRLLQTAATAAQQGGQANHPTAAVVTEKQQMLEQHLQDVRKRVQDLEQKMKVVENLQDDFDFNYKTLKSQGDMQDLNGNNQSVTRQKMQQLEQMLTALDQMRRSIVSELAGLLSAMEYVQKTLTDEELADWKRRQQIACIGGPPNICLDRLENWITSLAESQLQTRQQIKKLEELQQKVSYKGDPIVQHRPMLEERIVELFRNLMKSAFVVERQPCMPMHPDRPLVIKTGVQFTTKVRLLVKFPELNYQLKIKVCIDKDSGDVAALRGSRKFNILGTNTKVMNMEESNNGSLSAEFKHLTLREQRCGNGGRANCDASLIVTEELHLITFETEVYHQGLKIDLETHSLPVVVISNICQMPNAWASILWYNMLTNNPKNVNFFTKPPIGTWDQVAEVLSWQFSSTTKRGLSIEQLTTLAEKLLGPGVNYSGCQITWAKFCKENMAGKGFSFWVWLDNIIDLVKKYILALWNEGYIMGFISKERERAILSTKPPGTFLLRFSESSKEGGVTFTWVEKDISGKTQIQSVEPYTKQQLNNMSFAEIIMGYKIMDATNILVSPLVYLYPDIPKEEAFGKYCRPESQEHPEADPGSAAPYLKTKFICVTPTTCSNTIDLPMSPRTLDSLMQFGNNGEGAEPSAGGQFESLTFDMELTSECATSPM

Q: Which results are given for `C/C=C(/C)C(=O)O[C@H]1[C@@H]2[C@H](C)C(=O)O[C@@H]2C[C@@H](C)[C@@H]2C=CC(=O)[C@]21C` [BREVILIN A]?
A: inhibition [1]: Active; Activity [2]: Active; Activity [3]: Active; EC50 [4]: 1.02 µg/mL (≈ 2.94 µM); IC50 [5]: 3.46 µg/mL (≈ 9.99 µM); inhibition [6]: Active; Activity [7]: Active
